# Results: patent publication US5861395A, “Compounds useful for inhibition of farnesyl proteins transferase” (Schering Corporation, priority 1997, dated 1999)
# “And” between values parts separate entries of the source, which are not always exact repeats. Equal values may be shown once. Read-outs that look alike come from different tables or passages of the source.
# Experiments:
# [1] = molecular target: farnesyl protein transferase (K-ras) (Homo sapiens, UniProt P49354+P49356); experiment: FPT IC50 (K-ras), in vitro enzyme assay; format: biochemical
# Protocol: (§1) FPT IC50 (inhibition of farnesyl protein transferase, in vitro enzyme assay), GGPT IC50 (inhibition of geranylgeranyl protein transferase, in vitro enzyme assay) and COS Cell IC50 (Cell-Based Assay) were determined following the assay procedures described in WO 95/10516, published Apr. 20, 1995. Cell Mat Assay, and anti-tumor activity (in vivo anti-tumor studies) could be determined by the assay procedures described in WO 95/10516. The disclosure of WO 95/10516 is incorporated herein by reference thereto.
# [2] = test system: COS Cell; experiment: COS Cell IC50 (Cell-Based Assay)
# Protocol: as §1
# [3] = molecular target: farnesyl protein transferase (H-ras) (Homo sapiens, UniProt P49354+P49356); experiment: FPT IC50 (H-ras), in vitro enzyme assay; format: biochemical
# Protocol: as §1
# [4] = test system: Human tumor cells; experiment: Soft Agar Assay (anchorage-independent growth); format: cell-based; conditions: Homo sapiens, Table 4; colonies after 10-16 days at 37° C.
# Protocol: Soft Agar Assay: Anchorage-independent growth is a characteristic of tumorigenic cell lines. Human tumor cells are suspended in growth medium containing 0.3% agarose and an indicated concentration of a farnesyl transferase inhibitor. The solution is overlayed onto growth medium solidified with 0.6% agarose containing the same concentration of farnesyl transferase inhibitor as the top layer. After the top layer is solidified, plates are incubated for 10-16 days at 37° C. under 5% CO2 to allow colony outgrowth. […] Colonies can be counted and the IC50 's can be determined.
# [5] = molecular target: farnesyl protein transferase; experiment: FPT IC50 (inhibition of farnesyl protein transferase, in vitro enzyme assay); format: biochemical; conditions: Table 2
# Source text: In Table 2 "Ex. No." stands for "Example Number". In Table 2, FPT IC50 results are less indicated otherwise.
# [6] = molecular target: T1, geranylgeranyl protein transferase (Rattus norvegicus, UniProt P53610+Q04631); experiment: GGPT IC50 (inhibition of geranylgeranyl protein transferase, in vitro enzyme assay); format: biochemical
# T1 construct: from tissue; host or cells: rat brain (own knowledge of the cited WO 95/10516)
# Protocol: as §1
SMILES,IC50 [1],IC50 [3],IC50 [4],IC50 [5],IC50 ([1]; Table 2),IC50 [6],IC50 ([2]; Table 4),IC50 ([2]; Table 2)
CC(=O)OC[C@H]1O[C@@H](NC(=S)N2CCC(CC(=O)N3CCC([C@H]4c5ncc(Br)cc5CCc5cc(Cl)cc(Br)c54)CC3)CC2)[C@H](OC(C)=O)[C@@H](OC(C)=O)[C@@H]1OC(C)=O [Compound 4.0-B],29 nM,12 nM,,,,,1000 nM,
N#CN1CCC(CC(=O)N2CCC([C@H]3c4ncc(Br)cc4CCc4cc(Cl)cc(Br)c43)CC2)CC1 [Compound 98.0-B],17 nM,2.3 nM and 2.4 nM,100 nM,,,,12 nM,
O=C(CC1CCN(C(=O)N2CCOCC2)CC1)N1CCC([C@H]2c3ncc(Br)cc3CCc3cc(Cl)cc(Br)c32)CC1 [Compound 100.0-B],,5.5 nM,380 nM,,,,< 10 nM,

# Second part, led by results:
IC50 [1],IC50 [3],IC50 [4],IC50 [5],IC50 ([1]; Table 2),IC50 [6],SMILES,IC50 ([2]; Table 4),IC50 ([2]; Table 2)
,290 nM,,,,,"N=C(Oc1ccccc1)N1CCC(CC(=O)N2CCN(C3c4ccc(Cl)cc4CCc4cc(Br)cnc43)CC2)CC1 (centres unmarked) [Example 3, PHENYL 4-[2-[4-(3-BROMO-8-CHLORO-6,11-DIHYDRO-5 H-BENZO[5,6]CYCLOHEPTA1,2-b]PYRIDIN-11-YL)-1-PIPERAZINYL]-2-OXOETHYL-1-PIPERIDINECARBOXIMIDATE]",,
46 nM,,200 nM,8.8 nM,,,N=C(Oc1ccccc1)N1CCC(CC(=O)N2CCC([C@H]3c4ncc(Br)cc4CCc4cc(Cl)cc(Br)c43)CC2)CC1 [Example 25],24 nM,24 nM
,,,11 nM,782 nM,7500 nM,N=C(NCc1cccnc1)N1CCC(CC(=O)N2CCC(C3c4ccc(Cl)c(Br)c4CCc4cc(Br)cnc43)CC2)CC1 (centres unmarked) [Example 29],,> 1000 nM
